Earlier results on 1 compound are cited in patent US20090029952A1, “UNIQUE COMBINATION OF […] ACID, ETHYLENEDIAMINE DIHYDROIODIDE (EDDI), AND BUFFER FOR USE IN ANIMAL DRINKING WATER” (priority 2007, published 2009).

Regarding `CC(=O)Oc1ccccc1C(=O)O` [aspirin, acetylsalicylic acid], the “maximum solubility of aspirin alone in water” value (alone in water, or in the presence of sodium acetate or sodium diacetate) was 0.1 % by weight. Further, the solubility in water (water, from chemical handbooks) is reported as 0.1%.
